# Source: patent US20040072162A1, “Hiv peptides and nucleic acids encoding them for diagnosis and control of hiv infection” (priority 2000, published 2004)
# Peptide text beside a SMILES is read from it.
# Target: HLA-A2 MHC-I (HLA-A*0204) (Homo sapiens, UniProt P04439, D140Y/D185E/D98H/E176V/E277Q/G131W/G231S/I119V/I121M/I166T/I218V/L300P/L318F/N151K/N90K/P208A/P217A/Q86G/Q94H/R138H/R169H/T345S)
# Experiment: biochemical
row,Structure (SMILES),Kd
1,CC(C)C[C@H](NC(=O)[C@H](CCCCN)NC(=O)[C@H](Cc1ccccc1)NC(=O)[C@H](CS)NC(=O)[C@@H](N)Cc1c[nH]c2ccccc12)C(=O)N[C@H](C(=O)N1CCC[C@H]1C(=O)N[C@H](C(=O)O)C(C)C)C(C)C [8.121nat] (H-WCFKLVPV-OH),200 nM
2,CSCC[C@H](NC(=O)[C@H](CC(C)C)NC(=O)[C@@H](N)CCC(=O)O)C(=O)N[C@H](C(=O)N[C@@H](C)C(=O)N[C@@H](CS)C(=O)N[C@@H](CCC(N)=O)C(=O)NCC(=O)N[C@H](C(=O)O)C(C)C)[C@@H](C)O [8.66mod] (H-ELMTACQGV-OH),3970 nM
3,CC[C@H](C)[C@H](NC(=O)[C@@H](N)CC(N)=O)C(=O)N[C@@H](Cc1c[nH]c2ccccc12)C(=O)N[C@@H](C)C(=O)N[C@H](C(=O)N[C@@H](Cc1c[nH]cn1)C(=O)N[C@@H](C)C(=O)N[C@@H](CS)C(=O)N[C@H](C(=O)O)C(C)C)[C@@H](C)O [8.75natV] (H-NIWATHACV-OH),57 nM
4,CC[C@H](C)[C@H](NC(=O)[C@H](C)NC(=O)[C@@H](NC(=O)[C@@H](NC(=O)[C@H](C)NC(=O)[C@H](C)NC(=O)[C@@H](NC(=O)[C@@H](N)C(C)C)C(C)C)[C@@H](C)CC)[C@@H](C)CC)C(=O)N[C@H](C(=O)O)C(C)C [8.1nat] (H-VVAAIIAIV-OH),260 nM
